{"source": "patent US12209074B2", "about": "“SHP2 phosphatase allosteric inhibitor” (BEIJING SHENOGEN PHARMA GROUP LTD., priority 2019, dated 2025)"}
{"system": "Human non-small cell lung cancer NCI-H358", "assay": "Cell proliferation assay (CellTiter-Glu) in NCI-H358", "assay_type": "cell-based", "conditions": "5 days, NCI-H358 cells, cell viability by CellTiter-Glu, compound 0.3 nM-2 μM, medium and compound renewed after 3 days", "procedure": "Cell proliferation inhibition screening method was established by CellTier-Glu® test reagent from Promega.\nHuman non-small cell lung cancer NCI-H358 was cultured by RPMI-1640 (Gibco®) medium with 10% fetal bovine serum (Gibco®) at 37° C., 95% air and 5% CO2, in 25 cm^2 or 75 cm^2 plastic culture bottle ((Nunc®) and passaged 2-3 times a week.\nThe cells were seeded on the 96 well cell culture plate (Nunc®) at the density of 2*10^3/well, 90 μL/well, and cultured at 37° C., 95% air and 5% CO2. The compound to be tested was added 24 hours later: the compound was diluted 3 times with DMSO from the concentration of 2 mM compound (dissolved in DMSO). […] 10 μL of the compound diluted by culture medium was added into the culture plate seeded with cells. The final concentration of DMSO in cell culture medium was 0.1%, and the final concentration of test compound was 0.3 nM-2 μM. The cells were incubated at 37° C. for 3 days. The culture medium was substituted with 90 μL/well fresh complete medium. According to the above diluting method of compounds, the compound to be tested was added.\nAfter 5 days, cell viability was tested by CellTiter-Glu (Promega) kit, and finally, the semi-inhibitory concentration of compounds on cell proliferation, i.e. IC50 was calculated by Prism program.", "units": {"IC50": "nM"}}
{"smiles": "Cc1nc(N2CCC3(CC2)Cc2ccc(NS(C)(=O)=O)cc2[C@H]3N)c(CO)nc1-c1cccc(Cl)c1Cl", "note": "[Compound 3, (S)—N-(1-amino-1′-(5-(2,3-dichlorophenyl)-3-(hydroxymethyl)-6-methylpyrazin-2-yl)-1,3-dihydrospiro[indene-2,4′-piperidin]-6-yl) methanesulfonamide]", "IC50": 273}
{"smiles": "Cc1nc(N2CCC3(CC2)Cc2ccc(C(C)(C)O)cc2[C@H]3N)c(CO)nc1-c1cccc(Cl)c1Cl", "note": "[Compound 4, (S)-2-(1-amino-1′-(5-(2,3-dichlorophenyl)-3-(hydroxymethyl)-6-methylpyrazin-2-yl)-1,3-dihydrospiro[indene-2,4′-piperidin]-6-yl)propan-2-01]", "IC50": 817}
{"smiles": "Cc1nc(N2CCC3(CC2)Cc2ccc(C(N)=O)cc2[C@H]3N)c(CO)nc1-c1cccc(Cl)c1Cl", "note": "[Compound 5, (S)-1-amino-1′-(5-(2,3-dichlorophenyl)-3-(hydroxymethyl)-6-methylpyrazin-2-yl)-1,3-dihydrospiro[indene-2,4′-piperidine]-6-carboxamide]", "IC50": 98}
{"smiles": "Cc1nc(N2CCC3(CC2)Cc2ccccc2[C@H]3N)c(C(N)=O)nc1-c1cccc(Cl)c1Cl", "note": "[Compound 6, (S)-3-(1-amino-1,3-dihydrospiro[indene-2,4′-piperidin]-1′-yl)-6-(2,3-dichlorophenyl)-5-methylpyrazine-2-carboxamide]", "IC50": "> 1000"}
{"smiles": "Cc1nc(N2CCC3(CC2)Cc2ccccc2[C@H]3N)c(C#N)nc1-c1cccc(Cl)c1Cl", "note": "[Compound 7, (S)-3-(1-amino-1,3-dihydrospiro[indene-2,4′-piperidin]-1′-yl)-6-(2,3-dichlorophenyl)-5-methylpyrazine-2-carbonitrile]", "IC50": "> 1000"}
{"smiles": "Cc1nc(N2CCC3(CC2)Cc2cccc(C#N)c2[C@H]3N)c(CO)nc1-c1cccc(Cl)c1Cl", "note": "[Compound 8, (S)-1-amino-1′-(5-(2,3-dichlorophenyl)-3-(hydroxymethyl)-6-methylpyrazin-2-yl)-1,3-dihydrospiro[indene-2,4′-piperidine]-7-carbonitrile]", "IC50": "> 1000"}
{"smiles": "Cc1nc(N2CCC3(CC2)Cc2cc(NS(C)(=O)=O)ccc2[C@H]3N)c(CO)nc1-c1cccc(Cl)c1Cl", "note": "[Compound 9, (S)—N-(1-amino-1′-(5-(2,3-dichlorophenyl)-3-(hydroxymethyl)-6-methylpyrazin-2-yl)-1,3-dihydrospiro[indene-2,4′-piperidin]-5-yl)methanesulfonamide]", "IC50": "> 1000"}
{"smiles": "Cc1nc(N2CCC3(CC2)Cc2ccccc2[C@H]3N)c(CO)nc1-c1ccnc(N)c1Cl", "note": "[Compound 10, (S)-(3-(1-amino-1,3-dihydrospiro[indene-2,4′-piperidin]-1′-yl)-6-(2-amino-3-chloropyridin-4-yl)-5-methylpyrazin-2-yl)methanol]", "IC50": "> 1000"}
{"smiles": "N[C@@H]1c2ccccc2CC12CCN(c1ncc(-c3cccc(Cl)c3Cl)nc1CO)CC2", "note": "[Compound 11, (S)-(3-(1-amino-1,3-dihydrospiro[indene-2,4′-piperidin]-1′-yl)-6-(2,3-dichlorophenyl)pyrazin-2-yl)methanol]", "IC50": 405}
{"smiles": "Cc1nc(N2CCC3(CC2)Cc2ccccc2[C@H]3N)c(CO)nc1-c1cccnc1C(F)(F)F", "note": "[Compound 12, (S)-(3-(1-amino-1,3-dihydrospiro[indene-2,4′-piperidin]-1′-yl)-5-methyl-6-(2-(trifluoromethyl)pyridin-3-yl)pyrazin-2-yl)methanol]", "IC50": "> 1000"}
{"smiles": "COc1ccc2c(c1)[C@@H](N)C1(CCN(c3nc(C)c(-c4cccc(Cl)c4Cl)nc3CO)CC1)C2", "note": "[Compound 14]", "IC50": 56}
{"smiles": "Cc1cccc(-c2nc(CO)c(N3CCC4(CC3)Cc3ccccc3[C@H]4N)nc2C)c1C", "note": "[Compound 15]", "IC50": 590}
{"smiles": "Cc1nc(N2CCC3(CC2)Cc2ccccc2[C@H]3N)c(CO)nc1-c1ccccc1Br", "note": "[Compound 16]", "IC50": 261}
{"smiles": "Cc1nc(N2CCC3(CC2)Cc2ccccc2[C@H]3N)c(CO)nc1-c1ccc2[nH]ncc2c1", "note": "[Compound 17]", "IC50": 464}
{"smiles": "Cc1nc(N2CCC3(CC2)Cc2ccccc2[C@H]3N)c(CO)nc1-c1ccc2c(cnn2C)c1", "note": "[Compound 18]", "IC50": 630}
{"smiles": "Cc1nc(N2CCC3(CC2)Cc2ccccc2[C@H]3N)c(CO)nc1-c1ccnc(Cl)c1Cl", "note": "[Compound 19]", "IC50": 29}
{"smiles": "Cc1ccc2c(c1)[C@@H](N)C1(CCN(c3nc(C)c(-c4cccc(Cl)c4Cl)nc3CO)CC1)C2", "note": "[Compound 20]", "IC50": 48}
{"smiles": "Cc1nc(N2CCC3(CC2)Cc2ccccc2[C@H]3N)c(CO)nc1-c1ccc(Cl)c(Cl)c1", "note": "[Compound 22]", "IC50": 195}
{"smiles": "Cc1nc(N2CCC3(CC2)Cc2ccccc2[C@H]3N)c(CO)nc1-c1ccccc1Cl", "note": "[Compound 23]", "IC50": 479}
{"smiles": "Cc1nc(N2CCC3(CC2)Cc2ccccc2[C@@H]3N)c(CO)nc1-c1cccc(Cl)c1Cl", "note": "[Compound 24]", "IC50": "> 1000"}
{"smiles": "Cc1cccc(-c2nc(CO)c(N3CCC4(CC3)Cc3ccccc3[C@H]4N)nc2C)c1Cl", "note": "[Compound 25]", "IC50": 37}
{"smiles": "Cc1nc(N2CCC3(CC2)Cc2ccccc2[C@H]3N)c(CO)nc1-c1cc2ccccc2[nH]1", "note": "[Compound 26]", "IC50": 449}
{"smiles": "Cc1nc(N2CCC3(CC2)Cc2cc(C(N)=O)ccc2[C@H]3N)c(CO)nc1-c1cccc(Cl)c1Cl", "note": "[Compound 27]", "IC50": "> 1000"}
{"smiles": "Cc1nc(N2CCC3(CC2)Cc2cccc(Br)c2[C@H]3N)c(CO)nc1-c1cccc(Cl)c1Cl", "note": "[Compound 28]", "IC50": "> 1000"}
{"smiles": "Cc1nc(N2CCC3(CC2)Cc2ccc(N=S(C)(C)=O)cc2[C@H]3N)c(CO)nc1-c1cccc(Cl)c1Cl", "note": "[Compound 29]", "IC50": 199}
{"smiles": "Cc1nc(N2CCC3(CC2)Cc2c(C#N)cccc2[C@H]3N)c(CO)nc1-c1cccc(Cl)c1Cl", "note": "[Compound 30]", "IC50": 207}
{"smiles": "Cc1nc(N2CCC3(CC2)Cc2ccc(S(C)(=O)=O)cc2[C@H]3N)c(CO)nc1-c1cccc(Cl)c1Cl", "note": "[Compound 31]", "IC50": 249}
{"smiles": "Cc1nc(N2CCC3(CC2)Cc2ccc(Br)cc2[C@H]3N)c(CO)nc1-c1cccc(Cl)c1Cl", "note": "[Compound 32]", "IC50": 29}
{"smiles": "Cc1nc(N2CCC3(CC2)Cc2ccc(Cl)cc2[C@H]3N)c(CO)nc1-c1cccc(Cl)c1Cl", "note": "[Compound 33]", "IC50": 17}
{"smiles": "Cc1nc(N2CCC3(CC2)Cc2ccc(C(F)(F)F)cc2[C@H]3N)c(CO)nc1-c1cccc(Cl)c1Cl", "note": "[Compound 34]", "IC50": 90}
{"smiles": "Cc1nc(N2CCC3(CC2)Cc2cccnc2[C@H]3N)c(CO)nc1-c1cccc(Cl)c1Cl", "note": "[Compound 35]", "IC50": 101}
{"smiles": "Cc1nc(N2CCC3(CC2)Cc2ccc(OC(F)(F)F)cc2[C@H]3N)c(CO)nc1-c1cccc(Cl)c1Cl", "note": "[Compound 36]", "IC50": 31}
{"smiles": "Cc1nc(N2CCC3(CC2)Cc2ccncc2[C@H]3N)c(CO)nc1-c1cccc(Cl)c1Cl", "note": "[Compound 37]", "IC50": 75}
{"smiles": "Cc1nc(N2CCC3(CC2)Cc2cnccc2[C@H]3N)c(CO)nc1-c1cccc(Cl)c1Cl", "note": "[Compound 38]", "IC50": "> 1000"}
{"smiles": "Cc1cnc2c(c1)[C@@H](N)C1(CCN(c3nc(C)c(-c4cccc(Cl)c4Cl)nc3CO)CC1)C2", "note": "[Compound 39]", "IC50": 11}
{"smiles": "Cc1nc(N2CCC3(CC2)Cc2ncccc2[C@H]3N)c(CO)nc1-c1ccnc(Cl)c1Cl", "note": "[Compound 40]", "IC50": 30}
{"smiles": "COc1ccc(-c2nc(CO)c(N3CCC4(CC3)Cc3ccccc3[C@H]4N)nc2C)c(Cl)c1", "note": "[Compound 41]", "IC50": 97}
{"smiles": "Cc1nc(N2CCC3(CC2)Cc2ccccc2[C@H]3N)c(CO)nc1-c1ccc(S(C)(=O)=O)cc1Cl", "note": "[Compound 42]", "IC50": 732}
{"smiles": "Cc1nc(N2CCC3(CC2)Cc2ccccc2[C@H]3N)c(CO)nc1-c1cncc(Cl)c1Cl", "note": "[Compound 43]", "IC50": 225}
{"smiles": "Cc1nc(N2CCC3(CC2)Cc2ccccc2[C@H]3N)c(CO)nc1-c1cncc(Cl)c1", "note": "[Compound 44]", "IC50": "> 1000"}
{"smiles": "Cc1nc(N2CCC3(CC2)Cc2ccccc2[C@H]3N)c(CO)nc1-c1cnc(N)cc1Cl", "note": "[Compound 45]", "IC50": "> 1000"}
{"smiles": "COc1ccc(-c2nc(CO)c(N3CCC4(CC3)Cc3ncccc3[C@H]4N)nc2C)c(Cl)c1", "note": "[Compound 46]", "IC50": 379}
{"smiles": "Cc1ccc2c(c1)[C@H](N)C1(CCN(c3nc(C)c(-c4ccnc(Cl)c4Cl)nc3CO)CC1)C2", "note": "[Compound 48]", "IC50": "> 1000"}
{"smiles": "Cc1cnc2c(c1)[C@H](N)C1(CCN(c3nc(C)c(-c4ccnc(Cl)c4Cl)nc3CO)CC1)C2", "note": "[Compound 50]", "IC50": 453}
{"smiles": "Cc1cnc2c(c1)[C@@H](N)C1(CCN(c3nc(C)c(-c4ccncc4Cl)nc3CO)CC1)C2", "note": "[Compound 51]", "IC50": 81}
{"smiles": "Cc1cnc2c(c1)[C@H](N)C1(CCN(c3nc(C)c(-c4ccncc4Cl)nc3CO)CC1)C2", "note": "[Compound 52]", "IC50": "> 1000"}
{"smiles": "COc1ccc(-c2nc(CO)c(N3CCC4(CC3)Cc3ccccc3[C@H]4N)nc2C)c(Cl)c1Cl", "note": "[Compound 53]", "IC50": 328}
{"smiles": "Cc1nc(N2CCC3(CC2)Cc2ccccc2[C@H]3N)c(CO)nc1-c1cc(N)nc(C)c1Cl", "note": "[Compound 54]", "IC50": 83}
{"smiles": "Cc1ccnc(-c2nc(CO)c(N3CCC4(CC3)Cc3ccccc3[C@H]4N)nc2C)c1Cl", "note": "[Compound 55]", "IC50": "> 1000"}
{"smiles": "COc1ccc(-c2nc(CO)c(N3CCC4(CC3)Cc3ccccc3[C@H]4N)nc2C)c(Cl)n1", "note": "[Compound 56]", "IC50": 182}
{"smiles": "Cc1nc(N2CCC3(CC2)Cc2ccccc2[C@H]3N)c(CO)nc1-c1ccc(=O)[nH]c1Cl", "note": "[Compound 57]", "IC50": "> 1000"}
{"smiles": "CNc1cc(Cl)c(-c2nc(CO)c(N3CCC4(CC3)Cc3ccccc3[C@H]4N)nc2C)cn1", "note": "[Compound 58]", "IC50": "> 1000"}
{"smiles": "CNc1ccc(-c2nc(CO)c(N3CCC4(CC3)Cc3ccccc3[C@H]4N)nc2C)c(Cl)c1C(F)(F)F", "note": "[Compound 59]", "IC50": 115}
